Measurements reported in paper doi:10.1101/2024.03.08.584059, “AllTheBacteria: a community resource empowers biology and discovers novel peptide antibiotics” (bioRxiv, 2026).
Values after ≈ are worked out from the molar mass of the structure shown. Ends that are not written are not given here.

What was measured:
B. subtilis ATCC 23857 = assay: MIC, broth microdilution; assay type: cell-based; settings: Bacillus subtilis, ATCC23857, 24 h, Fig. 4 heat map, LB, 0–64 μmol L^−1, 37 °C, one day, OD600, mode of replicates, read-out: Minimal Inhibitory Concentration, B. subtilis ATCC 23857 (+)
Method: (§1) Figure 4. […] Briefly, 10[5] bacterial cells were incubated with serially diluted peptides (0–64 μmol L^−1) at 37 °C. Bacterial growth was assessed by measuring the optical density at 600 nm in a microplate reader one day post-treatment.

[1] = tested on: E. faecalis ATCC 700802 (VRE); assay: MIC, broth microdilution; assay type: cell-based; settings: Enterococcus faecalis, 24 h, Fig. 4 heat map, vancomycin-resistant, LB, 0–64 μmol L^−1, 37 °C, one day, OD600, mode of replicates, read-out: Minimal Inhibitory Concentration, E. faecalis ATCC 700802 - VRE (+)
Method: as §1

[2] = tested on: A. baumannii ATCC BAA-1605; assay: microbe, parasite or virus in culture; settings: Acinetobacter baumannii, ATCCBAA1605, 24 h, read-out: Minimal Inhibitory Concentration, A. baumannii ATCC BAA-1605 (-) - CGTPACCIMRA
Method: as §1

E. coli K-12 BW25113 = assay: microbe, parasite or virus in culture; settings: Escherichia coli, BW25113, 24 h, read-out: Minimal Inhibitory Concentration, E. coli K-12 BW25113 (-)
Method: as §1

E. cloacae ATCC 13047 = assay: microbe, parasite or virus in culture; settings: Enterobacter cloacae, ATCC13047, 24 h, read-out: Minimal Inhibitory Concentration, E. cloacae ATCC 13047 (-)
Method: as §1

P. aeruginosa PA14 = assay: microbe, parasite or virus in culture; settings: Pseudomonas aeruginosa, PA14, 24 h, read-out: Minimal Inhibitory Concentration, P. aeruginosa PA14 (-)
Method: as §1

E. coli ATCC BAA-3170 = assay: microbe, parasite or virus in culture; settings: Escherichia coli, ATCCBAA3170, 24 h, read-out: Minimal Inhibitory Concentration, E. coli ATCC BAA-3170 (-) - CRE
Method: as §1

K. pneumoniae ATCC 13883 = assay: microbe, parasite or virus in culture; settings: Klebsiella pneumoniae, ATCC13883, 24 h, read-out: Minimal Inhibitory Concentration, K. pneumoniae ATCC 13883 (-)
Method: as §1

P. aeruginosa PAO1 = assay: microbe, parasite or virus in culture; settings: Pseudomonas aeruginosa, PAO1, 24 h, read-out: Minimal Inhibitory Concentration, P. aeruginosa PAO1 (-)
Method: as §1

[3] = tested on: S. aureus ATCC BAA-1556 (MRSA); assay: microbe, parasite or virus in culture; settings: Staphylococcus aureus, ATCCBAA1556|MRSA, 24 h, read-out: Minimal Inhibitory Concentration, S. aureus ATCC BAA-1556 - MRSA (+)
Method: as §1

S. aureus ATCC 12600 = assay: microbe, parasite or virus in culture; settings: Staphylococcus aureus, ATCC12600, 24 h, read-out: Minimal Inhibitory Concentration, S. aureus ATCC 12600 (+)
Method: as §1

E. coli ATCC 11775 = assay: microbe, parasite or virus in culture; settings: Escherichia coli, ATCC11775, 24 h, read-out: Minimal Inhibitory Concentration, E. coli ATCC 11775 (-)
Method: as §1

A. baumannii ATCC 19606 [4] = assay: microbe, parasite or virus in culture; settings: Acinetobacter baumannii, ATCC19606, 24 h, read-out: Minimal Inhibitory Concentration, A. baumannii ATCC 19606 (-)
Method: as §1

[5] = tested on: K. pneumoniae ATCC BAA-2342; assay: microbe, parasite or virus in culture; settings: Klebsiella pneumoniae, ATCCBAA2342, 24 h, read-out: Minimal Inhibitory Concentration, K. pneumoniae ATCC BAA-2342 (-) - EIRK
Method: as §1

S. enterica ATCC 9150 = assay: microbe, parasite or virus in culture; settings: Salmonella enterica, ATCC9150, 24 h, read-out: Minimal Inhibitory Concentration, S. enterica ATCC 9150 (-)
Method: as §1

[6] = tested on: S. enterica Typhimurium ATCC 700720; assay: microbe, parasite or virus in culture; settings: Salmonella enterica, ATCC700720|TYPHIMURIUM, 24 h, read-out: Minimal Inhibitory Concentration, S. enterica Typhimurium ATCC 700720
Method: as §1

E. coli AIC221 = assay: MIC, broth microdilution; assay type: cell-based; settings: Escherichia coli, AIC221, 24 h, read-out: Minimal Inhibitory Concentration, E. coli AIC221 (-)
Method: Figure 4. Antimicrobial activity of APEX-predicted AllTheBacteria peptides. Heat map displaying the antimicrobial activities (μmol L^−1) of ATB peptides (rows) against 20 clinically relevant pathogens (columns) , including antibiotic-resistant strains. Briefly, 10[5] bacterial cells were incubated with serially diluted peptides (0–64 μmol L^−1) at 37 °C. Bacterial growth was assessed by measuring the optical density at 600 nm in a microplate reader one day post-treatment.

E. coli AIC222 = assay: microbe, parasite or virus in culture; assay type: cell-based; settings: Escherichia coli, AIC222, 24 h, read-out: Minimal Inhibitory Concentration, E. coli AIC222 - CRE (-)
Method: as §1

[7] = tested on: 20 clinically relevant Gram-negative and Gram-positive bacterial strains; assay: Antibacterial profiling across the panel; assay type: cell-based; settings: in words; 20-strain MIC panel
Source text: We first compared the predicted AllTheBacteria (here abbreviated ATB) peptides with antimicrobial peptides curated in widely used databases (see Supp. Note 3, Supp. Figs 10-13). ATB peptides were enriched in basic residues, particularly lysine and arginine, and many also contained hydrophobic or aromatic residues, including leucine, isoleucine, and tryptophan. These features are consistent with electrostatic engagement of bacterial envelopes and potential membrane interaction. From this prioritized pool, we selected 24 peptides (Supp. Table 1) for chemical synthesis and experimental validation. The selected panel included highly cationic low-complexity sequences, mixed hydrophobic–cationic architectures and tryptophan-rich motifs, allowing us to test whether distinct classes of ATB-derived encrypted peptides translate into antibacterial activity. The 24 synthesized peptides were profiled against 20 clinically relevant Gram-negative and Gram-positive bacterial strains, including antibiotic-resistant ones (Fig. 4). Antibacterial activity was most pronounced against Gram-negative species, including Acinetobacter baumannii, Escherichia coli, Enterobacter cloacae, Klebsiella pneumoniae, and Pseudomonas aeruginosa.
Figure 4. […] Bacterial growth was assessed by measuring the optical density at 600 nm in a microplate reader one day post-treatment.

[8] = tested on: human embryonic kidney (HEK293T) cells; settings: 24 h
Method: The cells were cultured in high-glucose Dulbecco’s modified Eagle’s medium supplemented with 1% penicillin and streptomycin (antibiotics) and 10% fetal bovine serum and grown at 37 °C in a humidified atmosphere containing 5% CO2.
One day prior to the experiment, 100 μL aliquots of human embryonic kidney (HEK293T) cells, at a concentration of 50,000 cells per mL, were seeded into each well of 96-well plates (5,000 cells per well). Following cell attachment, the HEK293T cells were treated with increasing concentrations of peptides (ranging from 8 to 128 μmol L^−1) and incubated for 24 h. After the exposure period, cytotoxicity was assessed using the 3-(4,5-dimethylthiazol-2-yl)-2,5-diphenyltetrazolium bromide (MTT) assay. Specifically, the MTT reagent was prepared at a concentration of 0.5 mg mL^−1 in phenol red-free medium and used to replace the peptide-containing supernatants (100 μL per well). The plates were then incubated for 4 h at 37 °C in a humidified atmosphere with 5% CO2, facilitating the formation of insoluble formazan crystals. These crystals were subsequently dissolved in 0.04 mol L^−1 hydrochloric acid prepared in anhydrous isopropanol. Absorbance was measured at 570 nm using a spectrophotometer to quantify cell viability. All experiments were conducted in triplicate (three biological replicates).
To evaluate the safety profile of the ATB peptides, we measured their cytotoxicity against human embryonic kidney (HEK293T) cells using a 3-(4,5-dimethylthiazol-2-yl)-2,5-diphenyltetrazolium bromide (MTT) viability assay and determined half-maximal cytotoxic concentrations (CC50). […]
index as the ratio CC50 (HEK293T) / MIC against A. baumannii ATCC 19606.

[9] = Mouse weight monitoring in skin abscess model; assay type: in vivo; settings: CD-1 mice, 4 days total, single topical dose at 10×MIC, in words
Method: (§2) Figure 5. Anti-infective activity of a lead ATB peptide in a murine infection model. […] The limit of detection (LOD) for the CFU quantification is log10 CFU = 2. Bacterial burdens are shown as violin plots with individual data points overlaid; each point represents one animal. The horizontal line within each violin indicates the mean, and violin width reflects the distribution of values within each group. Statistical comparisons were performed separately for each time point using ordinary one-way ANOVA followed by Dunnett’s two-sided multiple comparisons test versus the control group. Exact p-values are shown above the indicated comparisons. (Panel a created in BioRender.)
The back of six-week-old female CD-1 mice under anesthesia were shaved and injured with a superficial linear skin abrasion made with a needle. An aliquot of A. baumannii ATCC 19606 (1.1×10^6 CFU mL^−1; […]) previously grown in LB medium until 0.5 OD mL^−1 (optical value at 600 nm) and then washed twice with sterile PBS (pH 7.4, 9,391 ģ for 3 min) was added to the scratched area. […] Two- and four-days post-infection, animals were euthanized, and a uniform excision of the scarified skin was excised, homogenized using a bead beater (25 Hz for 20 min), 10-fold serially diluted, and plated on McConkey agar plates for CFU quantification. The experiments were performed using six mice per group. […]

A. baumannii ATCC 19606 [10] = assay: Skin abscess infection mouse model; assay type: in vivo, Acinetobacter baumannii; settings: CD-1 mice; for reduction of bacterial burden relative to untreated controls: single topical dose at 10×MIC
Method: as §2
The back of six-week-old female CD-1 mice under anesthesia were shaved and injured with a superficial linear skin abrasion made with a needle. An aliquot of A. baumannii ATCC 19606 (1.1×10^6 CFU mL^−1; […]) previously grown in LB medium until 0.5 OD mL^−1 (optical value at 600 nm) and then washed twice with sterile PBS (pH 7.4, 9,391 ģ for 3 min) was added to the scratched area. […] Two- and four-days post-infection, animals were euthanized, and a uniform excision of the scarified skin was excised, homogenized using a bead beater (25 Hz for 20 min), 10-fold serially diluted, and plated on McConkey agar plates for CFU quantification. The experiments were performed using six mice per group. Mice were single-housed to avoid cross-contamination and maintained under a 12-hour light/dark cycle at 22 °C with humidity controlled at 50%. The skin abscess infection mouse model was revised and approved by the University Laboratory Animal Resources (ULAR) from the University of Pennsylvania (Protocol 806763).
In the mouse experiments, all the raw data were log10 transformed and the statistical significance was determined using one-way ANOVA followed by Dunnett’s test. All the p values are shown for each of the groups, all groups were compared to the untreated control group. […] Statistical significance between different groups was calculated using the tests indicated in each figure legend. […]

E. coli isolates = settings: strain not named
Method: as §1

`C[C@H]1COc2c(N3CCN(C)CC3)c(F)cc3c(=O)c(C(=O)O)cn1c23` [Levofloxacin] showed an MIC (B. subtilis ATCC 23857) of 0.1 µM (≈ 0.0361 µg/mL), an MIC [1] of 1 µM (≈ 0.361 µg/mL) and an MIC [2] of 64 µM (≈ 23.1 µg/mL). For the same compound, the MIC (E. coli K-12 BW25113) was 0.1 µM (≈ 0.0361 µg/mL), the MIC (E. cloacae ATCC 13047) was 0.1 µM (≈ 0.0361 µg/mL) and the MIC (P. aeruginosa PA14) was 0.5 µM (≈ 0.181 µg/mL). The MIC (E. coli ATCC BAA-3170) was 0.1 µM (≈ 0.0361 µg/mL), the MIC (K. pneumoniae ATCC 13883) was 0.1 µM (≈ 0.0361 µg/mL) and the MIC (P. aeruginosa PAO1) was 4 µM (≈ 1.45 µg/mL). For the same compound, the MIC [3] was 4 µM (≈ 1.45 µg/mL), the MIC (S. aureus ATCC 12600) was 4 µM (≈ 1.45 µg/mL) and the MIC (E. coli ATCC 11775) was 0.1 µM (≈ 0.0361 µg/mL). For the same compound, the MIC (A. baumannii ATCC 19606 [4]) was 0.3 µM (≈ 0.108 µg/mL), the MIC [5] was 0.1 µM (≈ 0.0361 µg/mL) and the MIC (S. enterica ATCC 9150) was 0.1 µM (≈ 0.0361 µg/mL). It also gave an MIC [6] of 0.5 µM (≈ 0.181 µg/mL), an MIC (E. coli AIC221) of 0.1 µM (≈ 0.0361 µg/mL) and an MIC (E. coli AIC222) of 0.1 µM (≈ 0.0361 µg/mL).
For “MKKLKIKKLKIKKLKIKKLKIKNLKIKKLKIKNLKI-OH [ATB15]”, the “antibacterial activity across the panel” value [7] was “limited measurable activity” and the “half-maximal cytotoxic concentration (CC50)” value [8] was 9 to 12 µM.
In the case of “MKLWKIVRFLALSKGAKALRKKPVRKAAASFVKSYALWKYIRRK-OH [ATB20]”, the mouse body weight [9] was “remained stable”, the “time for which proliferation of the infection was inhibited after treatment” value (A. baumannii ATCC 19606 [10]; single dose at 10xMIC post-infection, compared to untreated control) was “up to 4 days” and the “reduction of bacterial burden relative to untreated controls” value (A. baumannii ATCC 19606 [10]; day 4, n = 6) was ~ 1.5 log. The “reduction of bacterial burden relative to untreated controls” value (A. baumannii ATCC 19606 [10]; two days after infection, n = 6) was ~ 2 log.
In the case of “MRRRGWKVRLKRRRGWKVRLMRRRGWKVRLKRRRLVLPVWA-OH [ATB9]”, the “MIC, E. coli” value (E. coli isolates) was 4 µM.
